# From patent US5968978A, “Biphenylsulfonylcyanamides, process for their preparation, and their use as medicament” (Hoechst Marion Roussel Deutschland, priority 1997, dated 1999)
# Tested on: Na+-dependent Cl-/HCO3- exchanger (NCBE)
# Assay: Inhibition of the Na+-dependent Cl-/HCO3- exchanger (NCBE) in human endothelial cells (FLIPR, BCECF pHi recovery)
# Assay type: cell-based
# Settings: inhibitor concentration of 10 μM; human endothelial cells (ECV-304); 50 μM HOE 642 present
# Protocol: Inhibition of the Na^+ -dependent Cl^- /HCO3^- exchanger (NCBE) in human endothelial cells
# Human endothelial cells (ECV-304) were detached from culture flasks with the aid of trypsin/EDTA buffer (0.05/0.02% in phosphate buffer) and, after centrifugation (100 g, 5 min), taken up in a buffered salt solution (mmol/l: 115 NaCl, 20 NH4 Cl, 5 KCl, 1 CaCl2, 1 MgSO4, 20 N-(2-hydroxyethyl)-piperazine-N'-2-ethanesulfonic acid (HEPES), 5 glucose and 1 g/l of bovine serumalbumin; pH 7.4). This cell suspension was incubated at 37° C. for 20 min with 5 μM BCECF acetoxymethyl ester. The cells were then washed and resuspended in a sodium- and bicarbonate-free buffer solution (mmol/l: 5 HEPES, 133.8 choline chloride, 4.7 KCl, 1.25 MgCl2, 0.97 K2 HPO4, 0.23 KH2 PO4, 5 glucose; pH 7.4).
# The subsequent fluorescence measurement in the FLIPR (Fluorescent Imaging Plate Reader), 100 μl of this cell suspension in each case containing 20000 cells were added by pipette per well of a 96-well microtiter plate and this microtiter plate was centrifuged (100 g, 5 min).
# In the FLIPR, 100 μl of buffer solution in each case were then removed from a further prepared microtiter plate and added by pipette to each of the 96 wells of the measuring plate. In this case, for a 100% control, i.e. a recovery of the intracellular pH (pHi) by means of the NCBE, a bicarbonate- and sodium-containing buffer solution (mmol/l: 5 HEPES, 93.8 NaCl, 40 NaHCO3, 4.7 KCl, 1.25 CaCl2, 1.25 MgCl2, 0.97 Na2 HPO4, 0.23 NaH2 PO4, 5 glucose; pH 7.4) which contained 50 μM HOE 642 was used. For a 0% control, i.e. no pHi recovery at all, a bicarbonate-free, sodium-containing buffer solution (mmol/l: 5 HEPES, 133.8 NaCl, 4.7 KCl, 1.25 CaCl2, 1.25 MgCl2, 0.97 Na2 HPO4, 0.23 NaH2 PO4, 5 glucose; pH 7.4) to which 50 μM HOE 642 were also added was employed. The compounds of the formula (I) according to the invention were added in various concentrations of the sodium- and bicarbonate-containing solution.
# After addition of the buffer solutions to the dye-loaded acidified cells situated in the measuring plate,the increase in the fluorescence intensity which corresponded to an increase in the pHi was determined in each well of the microtiter plate. The kinetics were in this case recorded at 35° C. over a period of 2 minutes.
# The increase in the fluorescence intensities for different concentrations of the compounds according to the invention was related to the two controls and from this the inhibitory action of the substances was determined.
row,SMILES,Residual activity of the NCBE [%]
1,"N#CNS(=O)(=O)c1ccccc1-c1ccc(C=C2CCCCC2)cc1 [Example 1, 4'-Cyclohexylidenemethylbiphenyl-2-sulfonylcyanamide]",68.4
2,"N#CNS(=O)(=O)c1ccccc1-c1ccc(/C=C\C2CCCCC2)cc1 [Example 8, cis-4'-(2-Cyclohexylvinyl)biphenyl-2-sulfonylcyanamide]",13.4
3,"N#CNS(=O)(=O)c1ccccc1-c1ccc(/C=C/C2CCCCC2)cc1 [Example 9, trans-4'-(2-Cyclohexylvinyl)biphenyl-2-sulfonylcyanamide]",12.8
4,"N#CNS(=O)(=O)c1ccccc1-c1ccc(C=C2CCCC2)cc1 [Example 3, 4'-Cyclopentylidenemethylbiphenyl-2-sulfonylcyanamide]",29.4
5,"N#CNS(=O)(=O)c1ccccc1-c1ccc(CC2CCCCC2)cc1 [Example 2, 4'-Cyclohexylmethylbiphenyl-2-sulfonylcyanamide]",51.6
6,"N#CNS(=O)(=O)c1ccccc1-c1ccc(CCC2CCCCC2)cc1 [Example 10, 4'-(2-Cyclohexylethyl)biphenyl-2-sulfonylcyanamide]",24.3
7,"N#CNS(=O)(=O)c1ccccc1-c1ccc(/C=C\c2ccccc2)cc1 [Example 5, cis-4'-Styrylbiphenyl-2-sulfonylcyanamide]",21.2
8,"N#CNS(=O)(=O)c1ccccc1-c1ccc(CCc2ccccc2)cc1 [Example 7, 4'-Phenethylbiphenyl-2-sulfonylcyanamide]",64.2
9,"N#CNS(=O)(=O)c1ccccc1-c1ccc(/C=C/c2ccccc2)cc1 [Example 6, trans-4'-Styrylbiphenyl-2-sulfonylcyanamide]",19.3
10,"N#CNS(=O)(=O)c1ccccc1-c1ccc(C=C2CCCCCC2)cc1 [Example 4, 4'-Cycloheptylidenemethylbiphenyl-2-sulfonylcyanamide]",30.5
